Laboratory results reported in patent US20070172425A1, “Testing cell cycle regulation effect of a compound using a hollow fibre cell implant” (priority 2003, published 2007).
“And” between values parts separate entries of the source, which are not always exact repeats. Equal values may be shown once.

How the values were obtained:
[1] = tested on: HCT116 cells; assay: In vivo hollow fibre PD model, topotecan G2 arrested cells implanted in mice (FACS); details: for 0 h G2 % / 24 h % G1 / 24 h % G2 / Δ% G2/ Δ% G1 / SΔ % G2: Control TOP (vehicle); for SΔ % G2: % G2 at 24 h - % G2 at 0 h
Protocol: Specifically, HCT116 cells were first arrested at G2 with topotecan (TOP) treatment. At the end of 18 h topotecan treatment, fibres were implanted subcutaneously to mice with 4 fibres per mouse (FIG. 3A). Control fibres without topotecan treatment were also included (FIGS. 3F, G). […] The first injection was administered immediately after fibre implantation while the second injection was given 5 hours later. Mice in the TOP alone control group (n=2) received vehicle (0.9% NaCl) only (FIG. 3D). After implantation, fibres (8 fibres per time point) were retrieved from mice at indicated time points. Cells were then flushed out from the fibres and analyzed by FACS and immunoblotting.
At indicated time points, fibres were removed from mice, wiped with gauze and placed in petri dishes or 6 well plates containing enough warm media to cover fibres. Both ends of the fibres were then cut open using forceps and scissors. The fibres were flushed twice with a 200 μL pipette filled with medium by inserting into fibre opening. The medium containing the cells were collected and centrifuged for 3-minutes at 1600 rpm. The supernatant was discarded and 1 mL of trypsin was added onto the pellets and mixed until single cell suspension is obtained. Then, 5 mL of serum rich medium was added to the cell suspension and centrifuged. The supernatant was then decanted leaving approximately 200 μL of cell suspension. The suspension was then added. drop wise while vortexing to 5 mL of ice cold 70% ETOH. Cells were then fixed at −20° C. for a minimum of 1 hour. The cells obtained were then processed according to FACS staining protocol. 3-8 fibres from each time point were typically used for FACS analysis.

[2] = tested on: tumor; details: 100 and 200 mg/kg, intraperitoneal injection, literature; cited from earlier work
[3] = tested on: H460 cells; assay: Inhibition of topotecan induced G2 arrest in vitro (FACS); type: cell-based; details: 24 h
Protocol: (§3) The compounds were added to the cells after G2 arrest induced by 18 h topotecan treatment at the indicated concentrations and incubated for a period of 24 h. Cells were then harvested and analyzed by FACS.
(§4) Fixed cells were centrifuged at 1600 rpm for 5 minutes and the ETOH was decanted. They were then washed with 2 ml of PBS, recentrifuged and decanted. The cells were then stained with propidium iodide. Cell cycle study was performed using a FACSCalibur (Becton Dickinson) using Cell-QuestPro software. Cell cycle distribution was determined using either Modfit (Verity software house, ME, USA) or WinMDI (Joseph Trotter, Scripps Institute) software.

[4] = tested on: HCT116 cells; assay: as above; type: cell-based; details: for inhibition of topotecan induced G2 arrest: 24 h
Protocol: as §3, §4

[5] = tested on: H460 cells; assay: Topotecan induced G2 arrest in vitro (topotecan titration, FACS); type: cell-based
Protocol: (§1) To perform the experiments, cells were grown to 50% confluency in 10 cm dishes. The cells were then dosed with topotecan at indicated concentrations for 18 hours. Cells were then harvested and the G2 arrest was analyzed by FACS analysis 24 h later.
(§2) The cells were then stained with propidium iodide.

[6] = tested on: HCT116 cells; assay: as above; type: cell-based
Protocol: as §1, §2

[7] = tested on: HCT116 cells; assay: Double thymidine block and G2 arrest with brief topotecan treatment in vitro; type: cell-based; details: 1 h treatment, 24 h after block removal
Protocol: We adapted the study of G2 checkpoint regulation to the study of other cell cycle regulation pathways. Cells were first synchronized at the G1/S boundary by means of a double thymidine block (FIG. 7A-F). After synchronization, cells were harvested at indicated time points for observation of cell cycle progression (7B, C). To arrest cells at G2 checkpoint, the synchronized cells were incubated with topotecan at indicated concentrations for 1 h, and the topotecan was added 30 to 60 minutes after the release of double thymidine block. Topotecan treated cells were then harvested 24 h after double thymidine block and analyzed with FACS. Alternatively, at the end of double thymidine block, fibres were implanted to mice subcutaneously (4 fibres per mouse); fibres were retrieved from mice at the specified time points (8 fibres per time point) and analyzed by FACS. Control fibers without double thymidine treatment (8A, F) were also included.
Cells were plated onto 10-cm dishes on day 1 such that 30% confluence is reached on day 2. In hollow fibre experiments, loaded fibres were made on day 1, and incubated in the dishes overnight. On day 2, thymidine was added to the dishes to a final concentration of 2 mM. […] Cells were harvested 24 hours after the second thymidine treatment, and analyzed by FACS analysis. […]

[8] = TOP alone (50 nM, 18 h), 30 h, mean
[9] = TOP alone (50 nM, 18 h), 30 h, single replicates, listed as TOP

Cn1c(=O)c2c(ncn2C)n(C)c1=O [Caffeine]
inhibition of topotecan induced G2 arrest in tumor cells in vivo ([1]; systemic injection to mice): inhibit topotecan induced G2 arrest | sensitization of tumor to radiotherapy by inhibiting radiation induced G2 arrest [2]: sensitize tumor to radiotherapy | inhibition of topotecan induced G2 arrest ([3]; 4 mM, H460): significantly inhibits topotecan induced G2 arrest | inhibition of topotecan induced G2 arrest ([4]; 4 mM, HCT116): significantly inhibits topotecan induced G2 arrest

Cn1c2ccccc2c2c3c(c4c5ccccc5n(CCC#N)c4c21)CNC3=O [Go6976]
inhibition of topotecan induced G2 arrest ([3]; 5 μM, H460 (FIG. 2D)): effectively inhibits G2 arrest | inhibition of topotecan induced G2 arrest ([4]; 1.3 μM, HCT116 (FIG. 2H)): effectively inhibits G2 arrest | toxicity to cells (microscope, FACS) ([4]; Go6976 alone at the tested concentration): does not show any signs of toxicity

CC[C@@]1(O)C(=O)OCc2c1cc1n(c2=O)Cc2cc3c(CN(C)C)c(O)ccc3nc2-1 [Topotecan]
G2 arrest at 30 hour after implantation ([1]; 30 nM topotecan, 30 h): ~70% | cells arrested at G2/M phase at time 0 h ([1]; 50 nM topotecan 18 h, HCT116 in hollow fibres, 0 h): About 90% | G2 arrest at 30 hour after implantation ([1]; 50 nM topotecan, 30 h): about 90% | 0 h G2 % ([1]; Exp. 1, 0 h): 83.00% | 24 h % G1 ([1]; Exp. 1, 24 h): 23.00% | 24 h % G2 ([1]; Exp. 1, 24 h): 71.00% | Δ% G2/ Δ% G1 ([1]; Exp. 1, 24 h): 3.09 | SΔ % G2 ([1]; Exp. 1): −12.00% | 0 h G2 % ([1]; Exp. 2, 0 h): 69.00% | 24 h % G1 ([1]; Exp. 2, 24 h): 16.00% | 24 h % G2 ([1]; Exp. 2, 24 h): 58.00% | Δ% G2/ Δ% G1 ([1]; Exp. 2, 24 h): 3.63 | SΔ % G2 ([1]; Exp. 2): −11.00% | % G1, Mean [1, 8]: 7.9% | % G2, Mean [1, 8]: 88.7% | Odd (% G2/% G1), Mean [1, 8]: 11.4 | % G1 [1, 9]: 7.3% and 7.2% and 9.0% | % G2 [1, 9]: 88.1% and 90.2% and 87.9% | Odd (% G2/% G1) [1, 9]: 12.0 and 12.5 and 9.7 | Odd ratio ([1]; TOP alone, reference group): 1.0 | time at which cells begin to reenter the cell cycle after topotecan treatment ([5]; H460): about 7 h | concentration that sufficiently arrests cells at the G2 checkpoint ([5]; H460, 18 h treatment): 50 nM | time at which cells begin to reenter the cell cycle after topotecan treatment ([6]; HCT116): ~9 h | minimal concentration required to achieve an efficient G2 arrest ([6]; HCT116, 18 h treatment): 25 nM | G2 arrest of double thymidine block synchronized cells ([7]; 2 μM): complete G2 arrest | S phase arrest of double thymidine block synchronized cells ([7]; 5 μM): noticeable S phase arrest
